Measured values published in ChEMBL document CHEMBL3832761, “MMV Pathogen Box Bioactivity Data” (2017).
In brackets after ≈: the same amount, converted by molar mass.

Legend:
Type in all cases: functional
[1] = system: Mycobacterium tuberculosis; assay: AntiMycobacterium tuberculosis activity 2-week Alamar Blue 7H9/ADC/Tw MIC (uM); conditions: 336 h
HepG2 = assay: HepG2 CC50 (uM) Cytotoxicity; conditions: Homo sapiens
[2] = system: Mycobacterium tuberculosis; assay: AntiMycobacterium tuberculosis activity 1-week 7H9/cholesterol/BSA/Tx MIC (uM); conditions: 168 h
[3] = system: Mycobacterium tuberculosis; assay: AntiMycobacterium tuberculosis activity 2-week 7H9/DPPC/cholesterol/BSA/Tx MIC (uM); conditions: 336 h
[4] = system: Mycobacterium tuberculosis; assay: AntiMycobacterium tuberculosis activity 1-week 7H9/DPPC/cholesterol/BSA/Tx MIC (uM); conditions: 168 h
[5] = system: Mycobacterium tuberculosis; assay: AntiMycobacterium tuberculosis activity day 21 in 7H9/2.5mM butyrate/pH6/0.1mM nitrite MIC90 (uM); conditions: 504 h
[6] = system: Mycobacterium tuberculosis; assay: (§1) AntiMycobacterium tuberculosis activity day 10 in 7H9/2.5mM butyrate/pH6/0.1mM nitrite MIC90 (uM); conditions: 240 h
[7] = system: Mycobacterium tuberculosis; assay: AntiMycobacterium tuberculosis activity Replicating form: Average MIC90 (uM)
[8] = system: Mycobacterium tuberculosis; assay: AntiMycobacterium tuberculosis activity day 21 MIC99 in 7H9/2.5mM butyrate/pH6/0.1mM nitrite MIC99 (uM); conditions: 504 h
[9] = system: Mycobacterium tuberculosis; assay: AntiMycobacterium tuberculosis activity 2-week GAST/Fe MIC (uM); conditions: 336 h
[10] = system: Mycobacterium tuberculosis; assay: AntiMycobacterium tuberculosis activity 2-week Alamar Blue 7H9/cholesterol/BSA/Tx MIC (uM); conditions: 336 h
[11] = system: Mycobacterium tuberculosis; assay: AntiMycobacterium tuberculosis activity 1-week GAST/Fe MIC (uM); conditions: 168 h
[12] = system: Mycobacterium tuberculosis; assay: AntiMycobacterium tuberculosis activity Non-Replicating form: Average MIC90 (uM)
[13] = system: Mycobacterium tuberculosis; assay: AntiMycobacterium tuberculosis activity 2-week 7H9/ADC/Tw MIC (uM); conditions: 336 h
[14] = system: Mycobacterium tuberculosis; assay: AntiMycobacterium tuberculosis activity 2-week 7H9/glucose/BSA/Tx MIC (uM); conditions: 336 h
[15] = system: Mycobacterium tuberculosis; assay: as §1; conditions: 240 h; remark: listed apart in the source
[16] = system: Mycobacterium tuberculosis; assay: AntiMycobacterium tuberculosis activity 1-week 7H9/glucose/BSA/Tx MIC (uM); conditions: 168 h
[17] = system: Mycobacterium tuberculosis; assay: AntiMycobacterium tuberculosis activity 1-week 7H9/ADC/Tw MIC (uM); conditions: 168 h

| Compound | MIC [1] | CC50 (HepG2) | MIC [2] | MIC [3] | MIC [4] | MIC90 [5] | MIC90 [6] | MIC90 [7] | MIC [8] | MIC [9] | MIC [10] | MIC [11] | MIC90 [12] | MIC [13] | MIC [14] | MIC90 [15] | MIC [16] | MIC [17] |
| --- | --- | --- | --- | --- | --- | --- | --- | --- | --- | --- | --- | --- | --- | --- | --- | --- | --- | --- |
| O=C(CCC1CCCCC1)Nc1cccc(-c2nnc(-c3ccco3)o2)c1 | 2.3 µM (≈ 0.84 µg/mL) | > 100 µM | 1.56 µM (≈ 0.57 µg/mL) | 3.13 µM (≈ 1.14 µg/mL) | 2.3 µM (≈ 0.84 µg/mL) | 1.5 µM (≈ 0.548 µg/mL) | 1.5 µM (≈ 0.548 µg/mL) | 5.42 µM (≈ 1.98 µg/mL) | 1.5 µM (≈ 0.548 µg/mL) | 1.2 µM (≈ 0.439 µg/mL) | 3.13 µM (≈ 1.14 µg/mL) | 1.2 µM (≈ 0.439 µg/mL) | 13.7 µM (≈ 4.99 µg/mL) | 2.3 µM (≈ 0.84 µg/mL) | 3.13 µM (≈ 1.14 µg/mL) | 1.5 µM (≈ 0.548 µg/mL) | 2.3 µM (≈ 0.84 µg/mL) | 1.2 µM (≈ 0.439 µg/mL) |
| CC(C)(C(=O)Nc1ccc(F)cc1)n1cc(-c2ccccc2F)cn1 | 2.3 µM (≈ 0.785 µg/mL) | > 100 µM | 0.6 µM (≈ 0.205 µg/mL) | 1.56 µM (≈ 0.533 µg/mL) | 2.3 µM (≈ 0.785 µg/mL) | 6.25 µM (≈ 2.13 µg/mL) | 6.25 µM (≈ 2.13 µg/mL) | 4.51 µM (≈ 1.54 µg/mL) | 12.5 µM (≈ 4.27 µg/mL) | 2.3 µM (≈ 0.785 µg/mL) | 1.56 µM (≈ 0.533 µg/mL) | 2.3 µM (≈ 0.785 µg/mL) | 3.6 µM (≈ 1.23 µg/mL) | 1.56 µM (≈ 0.533 µg/mL) | 3.13 µM (≈ 1.07 µg/mL) | 12.5 µM (≈ 4.27 µg/mL) | 3.13 µM (≈ 1.07 µg/mL) | 1.56 µM (≈ 0.533 µg/mL) |
| Brc1c(-c2ccc3c(c2)OCO3)nc2ncccn12 | 4.7 µM (≈ 1.5 µg/mL) | > 100 µM | 1.56 µM (≈ 0.496 µg/mL) | 25 µM (≈ 7.95 µg/mL) | 3.13 µM (≈ 0.996 µg/mL) | 12.5 µM (≈ 3.98 µg/mL) | 1.5 µM (≈ 0.477 µg/mL) | 45.1 µM (≈ 14.4 µg/mL) | 50 µM (≈ 15.9 µg/mL) | 0.3 µM (≈ 0.0954 µg/mL) | 2.3 µM (≈ 0.732 µg/mL) | 0.2 µM (≈ 0.0636 µg/mL) | 27.8 µM (≈ 8.84 µg/mL) | 37 µM (≈ 11.8 µg/mL) | 37 µM (≈ 11.8 µg/mL) | > 50 µM | 25 µM (≈ 7.95 µg/mL) | 25 µM (≈ 7.95 µg/mL) |
| CC1COC2(CCN(c3nc(=O)c4cc(C(F)(F)F)cc([N+](=O)[O-])c4s3)CC2)O1 (stereo not given) | < 0.02 µM | > 100 µM | < 0.02 µM | < 0.02 µM | < 0.02 µM | ≤ 0.04 µM | ≤ 0.04 µM | < 0.01 µM | ≤ 0.04 µM | < 0.02 µM | < 0.02 µM | < 0.02 µM | < 0.01 µM | < 0.02 µM | < 0.02 µM | ≤ 0.04 µM | < 0.02 µM | < 0.02 µM |
| Cc1cc(O)nc(-n2nc(C)cc2C)n1 | 50 µM (≈ 10.2 µg/mL) | 60.7 µM | 25 µM (≈ 5.11 µg/mL) | > 50 µM | 50 µM (≈ 10.2 µg/mL) | 12.5 µM (≈ 2.55 µg/mL) | 6.25 µM (≈ 1.28 µg/mL) | > 100 µM | 12.5 µM (≈ 2.55 µg/mL) | 4.7 µM (≈ 0.96 µg/mL) | 25 µM (≈ 5.11 µg/mL) | 1.56 µM (≈ 0.319 µg/mL) | > 43.3 µM | 50 µM (≈ 10.2 µg/mL) | > 50 µM | 25 µM (≈ 5.11 µg/mL) | 25 µM (≈ 5.11 µg/mL) | 37 µM (≈ 7.56 µg/mL) |
| COc1ccc(Nc2ccccc2NC(=O)c2ccc(O)nc2)cc1 | 12.5 µM (≈ 4.19 µg/mL) | 42.5 µM | 0.3 µM (≈ 0.101 µg/mL) | 2.3 µM (≈ 0.771 µg/mL) | 0.6 µM (≈ 0.201 µg/mL) | 6.25 µM (≈ 2.1 µg/mL) | 1.5 µM (≈ 0.503 µg/mL) | 28.6 µM (≈ 9.59 µg/mL) | > 50 µM | < 0.02 µM | 0.6 µM (≈ 0.201 µg/mL) | < 0.02 µM | 17.8 µM (≈ 5.97 µg/mL) | 37 µM (≈ 12.4 µg/mL) | 37 µM (≈ 12.4 µg/mL) | > 50 µM | 37 µM (≈ 12.4 µg/mL) | 37 µM (≈ 12.4 µg/mL) |
| CCc1nc2ccc(Cl)cn2c1C(=O)NCc1ccc(N2CCC(c3ccc(OC(F)(F)F)cc3)CC2)cc1 [TELACEBEC] | 0.02 µM (≈ 0.0111 µg/mL) | > 100 µM | < 0.02 µM | 0.02 µM (≈ 0.0111 µg/mL) | < 0.02 µM | ≤ 0.04 µM | ≤ 0.04 µM | 0.01 µM (≈ 0.00557 µg/mL) | ≤ 0.04 µM | < 0.02 µM | 0.02 µM (≈ 0.0111 µg/mL) | < 0.02 µM | 0.01 µM (≈ 0.00557 µg/mL) | > 50 µM | > 50 µM | ≤ 0.04 µM | 0.1 µM (≈ 0.0557 µg/mL) | > 50 µM |
| Nc1nc2cc(-c3cncc(Oc4ccc(F)cc4)c3)ccc2[nH]1 | 19 µM (≈ 6.09 µg/mL) | 31.5 µM | 12.5 µM (≈ 4 µg/mL) | 19 µM (≈ 6.09 µg/mL) | 12.5 µM (≈ 4 µg/mL) | 6.25 µM (≈ 2 µg/mL) | 6.25 µM (≈ 2 µg/mL) | 9.89 µM (≈ 3.17 µg/mL) | 25 µM (≈ 8.01 µg/mL) | 6.25 µM (≈ 2 µg/mL) | 12.5 µM (≈ 4 µg/mL) | 6.25 µM (≈ 2 µg/mL) | 41.2 µM (≈ 13.2 µg/mL) | 19 µM (≈ 6.09 µg/mL) | 25 µM (≈ 8.01 µg/mL) | 25 µM (≈ 8.01 µg/mL) | 19 µM (≈ 6.09 µg/mL) | 19 µM (≈ 6.09 µg/mL) |
| O=C(Nc1nnc(-c2ccc(Cl)s2)o1)c1ccc(Cl)s1 | 9.4 µM (≈ 3.25 µg/mL) | 50.1 µM | 3.13 µM (≈ 1.08 µg/mL) | 12.5 µM (≈ 4.33 µg/mL) | 6.25 µM (≈ 2.16 µg/mL) | 6.25 µM (≈ 2.16 µg/mL) | 6.5 µM (≈ 2.25 µg/mL) | 35.2 µM (≈ 12.2 µg/mL) | > 50 µM | 1.2 µM (≈ 0.415 µg/mL) | 6.25 µM (≈ 2.16 µg/mL) | 0.78 µM (≈ 0.27 µg/mL) | 2.76 µM (≈ 0.956 µg/mL) | 9.4 µM (≈ 3.25 µg/mL) | 6.25 µM (≈ 2.16 µg/mL) | > 50 µM | 4.7 µM (≈ 1.63 µg/mL) | 9.4 µM (≈ 3.25 µg/mL) |
| COC(=O)c1c(NC(=O)c2c(F)c(F)c(F)c(F)c2F)sc2c1CCCCC2 | 1.56 µM (≈ 0.654 µg/mL) | 7.5 µM | 0.6 µM (≈ 0.252 µg/mL) | 1.56 µM (≈ 0.654 µg/mL) | 0.6 µM (≈ 0.252 µg/mL) | 3.1 µM (≈ 1.3 µg/mL) | 1.5 µM (≈ 0.629 µg/mL) | 0.86 µM (≈ 0.361 µg/mL) | 3.1 µM (≈ 1.3 µg/mL) | 0.78 µM (≈ 0.327 µg/mL) | 1.56 µM (≈ 0.654 µg/mL) | 0.78 µM (≈ 0.327 µg/mL) | 3.8 µM (≈ 1.59 µg/mL) | 2.3 µM (≈ 0.965 µg/mL) | 1.2 µM (≈ 0.503 µg/mL) | 3.1 µM (≈ 1.3 µg/mL) | 0.78 µM (≈ 0.327 µg/mL) | 1.2 µM (≈ 0.503 µg/mL) |
